Patent publication US20200199102A1, “COMPOUNDS THAT PARTICIPATE IN COOPERATIVE BINDING AND USES THEREOF” (Revolution Medicines, Inc., priority 2017, published 2020)
Where a SMILES comes first, the peptide text is derived from it. [ ]: non-standard residue; d: D form. MeBmt = C/C=C/C[C@@H](C)[C@@H](O)[C@H](NC)C(=O)O; NMeI = CC[C@H](C)[C@H](NC)C(=O)O; NMeT = CN[C@H](C(=O)O)[C@@H](C)O; NMeL = CN[C@@H](CC(C)C)C(=O)O; dNMeV = CN[C@@H](C(=O)O)C(C)C; NMeNva = CCC[C@H](NC)C(=O)O; NMeV = CN[C@H](C(=O)O)C(C)C; NMeA = CN[C@@H](C)C(=O)O; Abu = CC[C@H](N)C(=O)O; Sar = CNCC(=O)O

Molecular target: T1, Cyclophilin A (Homo sapiens, UniProt P62937)
T1 construct: made in house
Test: AlphaLISA inhibition of binding of biotinylated Cyclosporin A to FLAG tagged Cyclophilin A
Settings: for % signal: AlphaLISA signal; for % signal / % inhibition of CsA binding to Cyclophilin A: test concentration not given; for IC50: read-out: IC50 value of CsA binding to Cyclophilin A
Text: The binding of compounds of the invention to Cyclophilin A can be determined using the following protocol.
This protocol utilizes Perkin Elmers AlphaLISA technology platform to detect cyclosporine analogues by measuring the inhibition of binding of biotinylated Cyclosporin A to FLAG tagged Cyclophilin A.
10×TBST Buffer (Boston BioProducts IBB-181), Biotinylated Cyclosporin A (in-house), FLAG tagged Cyclophilin A (in-house); anti-FLAG Donor beads (PerkinElmer AS103) and Streptavidin Acceptor beads (PerkinElmer AL125); Compounds in DMSO (in-house), Cyclosporin A (LC Labs Cat #C-6000).
Add 20 uL of 6 nM Biotinylated CsA working stock to each well of the 96-well plate. Add 1 uL of test compound (100% DMSO) to each well of the plate using the Janus MTD head and P20 tips (except control wells). Add 1 uL of DMSO to negative control wells and 1 uL of 500 uM Cyclosporin A solution to positive control wells. In the dark, add 20 uL of combined Donor/Acceptor beads to each well. Incubate in the dark for 30 minutes at room temperature. In the dark, add 10 uL of 25 nM Flag tagged CypA working stock to each well. Incubate in the dark for 60 minutes at room temperature. Protect plate from light until reading on Biotek Synergy2 Plate Reader; Alphalisa 96-well protocol (680 excitation/615 emission).

T1 sequence (P62937 whole entry, species assumed): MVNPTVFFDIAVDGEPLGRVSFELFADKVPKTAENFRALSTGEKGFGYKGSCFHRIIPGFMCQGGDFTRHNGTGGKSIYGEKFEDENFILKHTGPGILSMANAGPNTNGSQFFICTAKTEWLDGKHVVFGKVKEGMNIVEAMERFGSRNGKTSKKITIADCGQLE

SMILES	% signal [%]	IC50 [nM]	% inhibition of CsA binding to Cyclophilin A [%]
C/C=C/C[C@@H](C)[C@@H](O)[C@H]1C(=O)N[C@@H](CC)C(=O)N(C)CC(=O)N(C)[C@@H]([C@@H](C)CC)C(=O)N[C@@H](C(C)C)C(=O)N(C)[C@@H](CC(C)C)C(=O)N[C@@H](CC(C)C)C(=O)N[C@H](C)C(=O)N(C)[C@@H](CC(C)C)C(=O)N(C)[C@@H](CC(C)C)C(=O)N(C)[C@@H](C(C)C)C(=O)N1C [Compound C45] (cyclo([MeBmt][Abu][Sar][NMeI]V[NMeL]L[dA][NMeL][NMeL][NMeV]))	−0.03	< 2000	100.03
C/C=C/C[C@@H](C)[C@@H](O)[C@H]1C(=O)N[C@@H](CC)C(=O)N(C)CC(=O)N(C)[C@@H](C)C(=O)N[C@@H](C(C)C)C(=O)N(C)[C@@H](C)C(=O)N[C@@H](C)C(=O)N[C@H](C)C(=O)N(C)[C@@H](CC(C)C)C(=O)N(C)[C@@H](CC(C)C)C(=O)N(C)[C@@H](C(C)C)C(=O)N1C [Compound C2] (cyclo([MeBmt][Abu][Sar][NMeA]V[NMeA]A[dA][NMeL][NMeL][NMeV]))	5.25	< 2000	94.75
C/C=C/C[C@@H](C)[C@@H](O)[C@H]1C(=O)N[C@@H](CC)C(=O)N(C)CC(=O)N(C)[C@@H]([C@@H](C)O)C(=O)N[C@@H](CC(C)C)C(=O)N(C)[C@@H](CC(C)C)C(=O)N[C@@H](CC(C)C)C(=O)N[C@H](C)C(=O)N(C)[C@@H](CC(C)C)C(=O)N(C)[C@@H](CC(C)C)C(=O)N(C)[C@@H](C(C)C)C(=O)N1C [Compound C63] (cyclo([MeBmt][Abu][Sar][NMeT]L[NMeL]L[dA][NMeL][NMeL][NMeV]))	4.64	< 2000	95.36
C/C=C/C[C@@H](C)[C@@H](O)[C@H]1C(=O)N[C@@H](CC)C(=O)N(C)CC(=O)N(C)[C@@H](C)C(=O)N[C@@H](C)C(=O)N(C)CC(=O)N[C@@H](C)C(=O)N[C@H](C)C(=O)N(C)[C@@H](CC(C)C)C(=O)N(C)[C@@H](CC(C)C)C(=O)N(C)[C@@H](C(C)C)C(=O)N1C [Compound C18] (cyclo([MeBmt][Abu][Sar][NMeA]A[Sar]A[dA][NMeL][NMeL][NMeV]))	2.12	< 2000	–
C/C=C/C[C@@H](C)[C@@H](O)[C@H]1C(=O)N[C@@H](CC)C(=O)N(C)CC(=O)N(C)[C@@H](C(C)C)C(=O)N[C@@H](C(C)C)C(=O)N(C)[C@@H](C)C(=O)N[C@@H](CC(C)C)C(=O)N[C@H](C)C(=O)N(C)[C@@H](CC(C)C)C(=O)N(C)[C@@H](CC(C)C)C(=O)N(C)[C@@H](C(C)C)C(=O)N1C [Compound C89] (cyclo([MeBmt][Abu][Sar][NMeV]V[NMeA]L[dA][NMeL][NMeL][NMeV]))	3.10	< 2000	96.90
C/C=C/C[C@@H](C)[C@@H](O)[C@H]1C(=O)N[C@@H](CC)C(=O)N(C)CC(=O)N(C)CC(=O)N[C@@H](C(C)C)C(=O)N(C)[C@@H](C)C(=O)N[C@@H](C)C(=O)N[C@H](C)C(=O)N(C)[C@@H](CC(C)C)C(=O)N(C)[C@@H](CC(C)C)C(=O)N(C)[C@@H](C(C)C)C(=O)N1C [Compound C5] (cyclo([MeBmt][Abu][Sar][Sar]V[NMeA]A[dA][NMeL][NMeL][NMeV]))	9.09	< 2000	90.91
C/C=C/C[C@@H](C)[C@@H](O)[C@H]1C(=O)N[C@@H](CC)C(=O)N(C)CC(=O)N(C)[C@@H]([C@@H](C)O)C(=O)N[C@@H](C(C)C)C(=O)N(C)[C@@H](CC(C)C)C(=O)N[C@@H](CC)C(=O)N[C@H](C)C(=O)N(C)[C@@H](CC(C)C)C(=O)N(C)[C@@H](CC(C)C)C(=O)N(C)[C@@H](C(C)C)C(=O)N1C [Compound C99] (cyclo([Abu][Sar][NMeT]V[NMeL][Abu][dA][NMeL][NMeL][NMeV][MeBmt]))	2.59	< 2000	97.41
C/C=C/C[C@@H](C)[C@@H](O)[C@H]1C(=O)N[C@@H](CC)C(=O)N(C)CC(=O)N(C)[C@H](C(C)C)C(=O)N[C@@H](C(C)C)C(=O)N(C)[C@@H](CC(C)C)C(=O)N[C@@H](CC(C)C)C(=O)N[C@H](C)C(=O)N(C)[C@@H](CC(C)C)C(=O)N(C)[C@@H](CC(C)C)C(=O)N(C)[C@@H](C(C)C)C(=O)N1C [Compound C55] (cyclo([MeBmt][Abu][Sar][dNMeV]V[NMeL]L[dA][NMeL][NMeL][NMeV]))	32.88	< 2000	67.12
C/C=C/C[C@@H](C)[C@@H](O)[C@H]1C(=O)N[C@@H](CC)C(=O)N(C)CC(=O)N(C)CC(=O)N[C@@H](C(C)C)C(=O)N(C)CC(=O)N[C@@H](C)C(=O)N[C@H](C)C(=O)N(C)[C@@H](CC(C)C)C(=O)N(C)[C@@H](CC(C)C)C(=O)N(C)[C@@H](C(C)C)C(=O)N1C [Compound C28] (cyclo([MeBmt][Abu][Sar][Sar]V[Sar]A[dA][NMeL][NMeL][NMeV]))	1.06	< 2000	98.94
C/C=C/C[C@@H](C)[C@@H](O)[C@H]1C(=O)N[C@@H](CC)C(=O)N(C)CC(=O)N(C)[C@@H]([C@@H](C)CC)C(=O)N[C@@H](C)C(=O)N(C)CC(=O)N[C@@H](C)C(=O)N[C@H](C)C(=O)N(C)[C@@H](CC(C)C)C(=O)N(C)[C@@H](CC(C)C)C(=O)N(C)[C@@H](C(C)C)C(=O)N1C [Compound C17] (cyclo([MeBmt][Abu][Sar][NMeI]A[Sar]A[dA][NMeL][NMeL][NMeV]))	17.17	< 2000	82.83
C/C=C/C[C@@H](C)[C@@H](O)[C@H]1C(=O)N[C@@H](CC)C(=O)N(C)CC(=O)N(C)CC(=O)N[C@@H](C(C)C)C(=O)N(C)[C@@H](C)C(=O)N[C@@H](CC(C)C)C(=O)N[C@H](C)C(=O)N(C)[C@@H](CC(C)C)C(=O)N(C)[C@@H](CC(C)C)C(=O)N(C)[C@@H](C(C)C)C(=O)N1C [Compound C85] (cyclo([MeBmt][Abu][Sar][Sar]V[NMeA]L[dA][NMeL][NMeL][NMeV]))	0.87	< 2000	99.13

The next lines start with the values.

% signal [%]	IC50 [nM]	% inhibition of CsA binding to Cyclophilin A [%]	SMILES
9.36	< 2000	–	C/C=C/C[C@@H](C)[C@@H](O)[C@H]1C(=O)N[C@@H](CC)C(=O)N(C)CC(=O)N(C)[C@@H](CC(C)C)C(=O)N[C@@H](CC(C)C)C(=O)N(C)[C@@H](C)C(=O)N[C@@H](C)C(=O)N[C@H](C)C(=O)N(C)[C@@H](CC(C)C)C(=O)N(C)[C@@H](CC(C)C)C(=O)N(C)[C@@H](C(C)C)C(=O)N1C [Compound C14] (cyclo([MeBmt][Abu][Sar][NMeL]L[NMeA]A[dA][NMeL][NMeL][NMeV]))
6.42	< 2000	93.58	C/C=C/C[C@@H](C)[C@@H](O)[C@H]1C(=O)N[C@@H](CC)C(=O)N(C)CC(=O)N(C)CC(=O)N[C@@H](C(C)C)C(=O)N(C)[C@@H](CC(C)C)C(=O)N[C@@H](CC)C(=O)N[C@H](C)C(=O)N(C)[C@@H](CC(C)C)C(=O)N(C)[C@@H](CC(C)C)C(=O)N(C)[C@@H](C(C)C)C(=O)N1C [Compound C97] (cyclo([Abu][Sar][Sar]V[NMeL][Abu][dA][NMeL][NMeL][NMeV][MeBmt]))
19.41	< 2000	80.59	C/C=C/C[C@@H](C)[C@@H](O)[C@H]1C(=O)N[C@@H](CC)C(=O)N(C)CC(=O)N(C)CC(=O)N[C@@H](C(C)C)C(=O)N(C)[C@@H](CC(C)C)C(=O)N[C@@H](CC(C)C)C(=O)N[C@H](C)C(=O)N(C)[C@@H](CC(C)C)C(=O)N(C)[C@@H](CC(C)C)C(=O)N(C)[C@@H](C(C)C)C(=O)N1C [Compound C49] (cyclo([MeBmt][Abu][Sar][Sar]V[NMeL]L[dA][NMeL][NMeL][NMeV]))
−0.03	< 2000	100.03	C/C=C/C[C@@H](C)[C@@H](O)[C@H]1C(=O)N[C@@H](CC)C(=O)N(C)CC(=O)N(C)[C@@H]([C@@H](C)O)C(=O)N[C@@H](C(C)C)C(=O)N(C)CC(=O)N[C@@H](C)C(=O)N[C@H](C)C(=O)N(C)[C@@H](CC(C)C)C(=O)N(C)[C@@H](CC(C)C)C(=O)N(C)[C@@H](C(C)C)C(=O)N1C [Compound C31] (cyclo([MeBmt][Abu][Sar][NMeT]V[Sar]A[dA][NMeL][NMeL][NMeV]))
0.90	< 2000	99.10	C/C=C/C[C@@H](C)[C@@H](O)[C@H]1C(=O)N[C@@H](CC)C(=O)N(C)CC(=O)N(C)[C@@H](CCC)C(=O)N[C@@H](C(C)C)C(=O)N(C)[C@@H](CC(C)C)C(=O)N[C@@H](CC(C)C)C(=O)N[C@H](C)C(=O)N(C)[C@@H](CC(C)C)C(=O)N(C)[C@@H](CC(C)C)C(=O)N(C)[C@@H](C(C)C)C(=O)N1C [Compound C54] (cyclo([MeBmt][Abu][Sar][NMeNva]V[NMeL]L[dA][NMeL][NMeL][NMeV]))
27.12	< 2000	72.88	C/C=C/C[C@@H](C)[C@@H](O)[C@H]1C(=O)N[C@@H](CC)C(=O)N(C)CC(=O)N(C)[C@@H](CC(C)C)C(=O)N[C@@H](CC(C)C)C(=O)N(C)[C@@H](CC(C)C)C(=O)N[C@@H](CC(C)C)C(=O)N[C@H](C)C(=O)N(C)[C@@H](CC(C)C)C(=O)N(C)[C@@H](CC(C)C)C(=O)N(C)[C@@H](C(C)C)C(=O)N1C [Compound C62] (cyclo([MeBmt][Abu][Sar][NMeL]L[NMeL]L[dA][NMeL][NMeL][NMeV]))
